Tested on: 454973-116-R2-J3-PDC spheroids, viability, % test/control
Assay: Anticancer human tumor 454973-116-R2-J3-PDC patient-derived pancreatic carcinoma cell line growth inhibition [GQUAD]
Conditions: spheroids with HUVEC and MSC; for IC50: curve of first compound; for viability, T/C: stronger effect = lower value
Outline: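 Viability of tumor cells grown as complex spheroids with endothelial and stromal cells, exposed to drug combinations. Top concentration at or near clinical Cmax (else 10 microM), diluted in half-log increments.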

[1] = second compound 0.0316 µM, first compound 0.0316 µM
[2] = second compound 0.0316 µM, first compound 0.1 µM
[3] = second compound 0.0316 µM, first compound 0.316 µM
[4] = second compound 0.0316 µM, first compound 1 µM
[5] = second compound 0.0316 µM, first compound 3.16 µM
[6] = second compound 0.0316 µM, first compound 10 µM
[7] = second compound 0.1 µM, first compound 0.0316 µM
[8] = second compound 0.1 µM, first compound 0.1 µM
[9] = second compound 0.1 µM, first compound 0.316 µM
[10] = second compound 0.1 µM, first compound 1 µM
[11] = second compound 0.1 µM, first compound 3.16 µM
[12] = second compound 0.1 µM, first compound 10 µM
[13] = second compound 0.316 µM, first compound 0.0316 µM
[14] = second compound 0.316 µM, first compound 0.1 µM
[15] = second compound 0.316 µM, first compound 0.316 µM
[16] = second compound 0.316 µM, first compound 1 µM
[17] = second compound 0.316 µM, first compound 3.16 µM
[18] = second compound 0.316 µM, first compound 10 µM
[19] = second compound 1 µM, first compound 0.0316 µM
[20] = second compound 1 µM, first compound 0.1 µM
[21] = second compound 1 µM, first compound 0.316 µM
[22] = second compound 1 µM, first compound 1 µM
[23] = second compound 1 µM, first compound 3.16 µM
[24] = second compound 1 µM, first compound 10 µM
[25] = second compound 3.16 µM, first compound 0.0316 µM
[26] = second compound 3.16 µM, first compound 0.1 µM
[27] = second compound 3.16 µM, first compound 0.316 µM
[28] = second compound 3.16 µM, first compound 1 µM
[29] = second compound 3.16 µM, first compound 3.16 µM
[30] = second compound 3.16 µM, first compound 10 µM
[31] = second compound 10 µM, first compound 0.0316 µM
[32] = second compound 10 µM, first compound 0.1 µM
[33] = second compound 10 µM, first compound 0.316 µM
[34] = second compound 10 µM, first compound 1 µM
[35] = second compound 10 µM, first compound 3.16 µM
[36] = second compound 10 µM, first compound 10 µM
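Note: spheroids exposed to compounds for seven days.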
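Throughout, for viability, T/C: 100% = DMSO vehicle control viability.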

COc1ncnc(C2CC2)c1-c1ncc2cnn(Cc3ccc(-c4nc(C(F)(F)F)cn4C(C)C)cc3)c2n1 + CN(C)c1ccc(Nc2c3ccc(NC(=O)CCN4CCCC4)cc3nc3cc(NC(=O)CCN4CCCC4)ccc23)cc1
IC50 (second compound 0.0316 µM): > 10 µM | IC50 (second compound 0.1 µM): > 10 µM | IC50 (second compound 0.316 µM): > 10 µM | IC50 (second compound 1 µM): > 10 µM | IC50 (second compound 3.16 µM): > 10 µM | IC50 (second compound 10 µM): > 10 µM | viability, T/C [1]: 104% | viability, T/C [2]: 113% | viability, T/C [3]: 97.6% | viability, T/C [4]: 102% | viability, T/C [5]: 99.5% | viability, T/C [6]: 102% | viability, T/C [7]: 102% | viability, T/C [8]: 114% | viability, T/C [9]: 114% | viability, T/C [10]: 108% | viability, T/C [11]: 84.8% | viability, T/C [12]: 95.4% | viability, T/C [13]: 94.2% | viability, T/C [14]: 104% | viability, T/C [15]: 102% | viability, T/C [16]: 101% | viability, T/C [17]: 91.6% | viability, T/C [18]: 90.6% | viability, T/C [19]: 96.3% | viability, T/C [20]: 96.2% | viability, T/C [21]: 101% | viability, T/C [22]: 106% | viability, T/C [23]: 94.2% | viability, T/C [24]: 97.1% | viability, T/C [25]: 86.2% | viability, T/C [26]: 91.6% | viability, T/C [27]: 105% | viability, T/C [28]: 87% | viability, T/C [29]: 93.5% | viability, T/C [30]: 78.5% | viability, T/C [31]: 71% | viability, T/C [32]: 69.4% | viability, T/C [33]: 77.2% | viability, T/C [34]: 66.5% | viability, T/C [35]: 61.9% | viability, T/C [36]: 50.8%

CC1COCCN1c1cc(-c2ccnn2C)c2ccnc(-c3ccn[nH]3)c2n1 (centres undefined) + Cc1cnc(CNC(=O)c2c(=O)c3ccc(N4CCCN(C)CC4)nc3n3c2sc2ccccc23)cn1
IC50 (second compound 0.0316 µM): 0.0423 µM | IC50 (second compound 0.1 µM): < 0.0316 µM | IC50 (second compound 0.316 µM): < 0.0316 µM | IC50 (second compound 1 µM): < 0.0316 µM | IC50 (second compound 3.16 µM): < 0.0316 µM | IC50 (second compound 10 µM): < 0.0316 µM | viability, T/C [1]: 58.3% | viability, T/C [2]: 26.2% | viability, T/C [3]: 17.6% | viability, T/C [4]: 18.5% | viability, T/C [5]: 21.3% | viability, T/C [6]: 21.7% | viability, T/C [7]: 35.7% | viability, T/C [8]: 23.1% | viability, T/C [9]: 18.9% | viability, T/C [10]: 14.7% | viability, T/C [11]: 18.3% | viability, T/C [12]: 23.3% | viability, T/C [13]: 33.7% | viability, T/C [14]: 20% | viability, T/C [15]: 18.6% | viability, T/C [16]: 16.8% | viability, T/C [17]: 19.4% | viability, T/C [18]: 21.6% | viability, T/C [19]: 39.7% | viability, T/C [20]: 27.9% | viability, T/C [21]: 27% | viability, T/C [22]: 24.2% | viability, T/C [23]: 22.6% | viability, T/C [24]: 19.5% | viability, T/C [25]: 40.3% | viability, T/C [26]: 34.5% | viability, T/C [27]: 31.5% | viability, T/C [28]: 27.2% | viability, T/C [29]: 20.2% | viability, T/C [30]: 20.3% | viability, T/C [31]: 0.13% | viability, T/C [32]: 0.16% | viability, T/C [33]: 2.37% | viability, T/C [34]: 0.14% | viability, T/C [35]: 0.16% | viability, T/C [36]: 0.17%

From PubChem BioAssay AID2060508 (Molecular Pharmacology Branch, DTP, NCI, 2025)
